Publication PMC11204201 (Science Advances, 2024)

Key:
UndA = target: T1, UndA (Pseudomonas putida, UniProt A5W7G6); assay: 1-undecene production, total turnover; type: biochemical; conditions: optimal conditions of UndA; details in supplement
T1 sequence (A5W7G6 1-271): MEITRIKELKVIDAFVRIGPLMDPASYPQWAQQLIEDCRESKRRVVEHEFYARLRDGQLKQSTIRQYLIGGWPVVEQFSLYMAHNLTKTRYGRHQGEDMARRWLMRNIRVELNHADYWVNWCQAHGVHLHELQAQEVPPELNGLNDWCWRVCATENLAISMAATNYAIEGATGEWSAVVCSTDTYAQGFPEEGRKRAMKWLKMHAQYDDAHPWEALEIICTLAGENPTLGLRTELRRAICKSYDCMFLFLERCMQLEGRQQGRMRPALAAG

OleT = target: T2, OleT (Jeotgalicoccus sp. ATCC 8456, UniProt E9NSU2); assay: 1-undecene production, total turnover; type: biochemical; conditions: CamAB redox partner system
T2 sequence (E9NSU2 1-422): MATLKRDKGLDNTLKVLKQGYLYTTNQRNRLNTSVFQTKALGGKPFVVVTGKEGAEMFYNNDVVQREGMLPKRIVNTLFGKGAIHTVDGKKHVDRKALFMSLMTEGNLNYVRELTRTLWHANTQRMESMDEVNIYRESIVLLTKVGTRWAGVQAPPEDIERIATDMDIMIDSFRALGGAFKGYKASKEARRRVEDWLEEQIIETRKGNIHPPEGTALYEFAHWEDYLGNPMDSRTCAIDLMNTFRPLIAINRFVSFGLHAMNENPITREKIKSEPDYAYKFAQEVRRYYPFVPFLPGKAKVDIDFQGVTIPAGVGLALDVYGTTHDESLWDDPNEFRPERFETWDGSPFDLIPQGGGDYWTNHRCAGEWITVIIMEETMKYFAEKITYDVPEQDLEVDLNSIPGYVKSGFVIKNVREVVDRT

SMILES: CCCCCCCCCCCC(=O)O [compound 5, lauric acid]
- 1-undecene production, total turnover (UndA): While UndA exhibited poor activity
- 1-undecene production, total turnover (OleT): UndB, OleT, and OleT-AldO showed substantial 1-undecene production (fig. S6)
